The supplement of paper PMC10307832

Legend:
Assay in all cases: relative viability (nuclei count vs DMSO), 5 days (fraction); higher = more cells survive
Wnt-C59 + Linsitinib = compound: CC1=NC=CC(=C1)C2=CC=C(C=C2)CC(=O)NC3=CC=C(C=C3)C4=CN=CC=C4 [Wnt-C59] + C[C@]1(O)C[C@@H](c2nc(-c3ccc4ccc(-c5ccccc5)nc4c3)c3c(N)nccn32)C1 [Linsitinib] (partner 1 µM)
Procedure, shortened: (§1)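 Lung cancer cell lines in 1536-well plates got either a single drug or a fixed anchor-drug dose together with five library-drug doses (not always all listed) in √10 steps, by pin tool, on the day after seeding. Nuclei were counted after 5 days, and relative viability is the treated-to-vehicle ratio of nuclei counts. Values are medians of duplicate plates.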

Lapatinib + Dasatinib = compound: CS(=O)(=O)CCNCc1ccc(-c2ccc3ncnc(Nc4ccc(OCc5cccc(F)c5)c(Cl)c4)c3c2)o1 [Lapatinib] + Cc1nc(Nc2ncc(C(=O)Nc3c(C)cccc3Cl)s2)cc(N2CCN(CCO)CC2)n1 [Dasatinib] (partner 0.075 µM)
Procedure, shortened: as §1

Wnt-C59 + Vorinostat = compound: CC1=NC=CC(=C1)C2=CC=C(C=C2)CC(=O)NC3=CC=C(C=C3)C4=CN=CC=C4 [Wnt-C59] + O=C(CCCCCCC(=O)Nc1ccccc1)NO [Vorinostat] (partner 1 µM)
Procedure, shortened: as §1

Wnt-C59 + Palbociclib = compound: CC1=NC=CC(=C1)C2=CC=C(C=C2)CC(=O)NC3=CC=C(C=C3)C4=CN=CC=C4 [Wnt-C59] + CC(=O)c1c(C)c2cnc(Nc3ccc(N4CCNCC4)cn3)nc2n(C2CCCC2)c1=O [Palbociclib] (partner 0.5 µM)
Procedure, shortened: as §1

Cell Line	relative viability (Wnt-C59 + Linsitinib; first compound 0.001 µM)	relative viability (Wnt-C59 + Linsitinib; first compound 0.01 µM)	relative viability (Wnt-C59 + Linsitinib; first compound 0.03162 µM)	relative viability (Wnt-C59 + Linsitinib; first compound 0.1 µM)	relative viability (Lapatinib + Dasatinib; first compound 0.02 µM)	relative viability (Lapatinib + Dasatinib; first compound 0.06325 µM)	relative viability (Lapatinib + Dasatinib; first compound 0.2 µM)	relative viability (Lapatinib + Dasatinib; first compound 0.6325 µM)	relative viability (Lapatinib + Dasatinib; first compound 2 µM)	relative viability (Wnt-C59 + Vorinostat; first compound 0.001 µM)	relative viability (Wnt-C59 + Vorinostat; first compound 0.01 µM)	relative viability (Wnt-C59 + Vorinostat; first compound 0.03162 µM)	relative viability (Wnt-C59 + Vorinostat; first compound 0.1 µM)	relative viability (Wnt-C59 + Palbociclib; first compound 0.001 µM)	relative viability (Wnt-C59 + Palbociclib; first compound 0.01 µM)	relative viability (Wnt-C59 + Palbociclib; first compound 0.03162 µM)	relative viability (Wnt-C59 + Palbociclib; first compound 0.1 µM)
SW 1573	0.696	0.806	0.874	0.862	0.389	0.381	0.738	0.434	0.442	0.801	0.673	0.778	0.662	0.413	0.368	0.466	0.408
NCI-H23	0.719	0.518	0.579	0.483			0.688	0.762	0.738	0.499	0.541	0.737	0.59	0.51	0.508	0.521	0.474
HCC-15	0.922	0.96	0.856	0.928		0.403	0.591	0.622	0.551	0.851	0.817	1.05	0.892	0.769	0.735	0.7	0.717
LU99A	0.554	0.508	0.594	0.495	0.492	0.408	0.453	0.587	0.475	0.486	0.474	0.484	0.442	0.451	0.372	0.446	0.417
HOP-62	1.09	1.1	1.14	0.95	0.508	0.633	0.615	0.69	0.566	0.639	0.576	0.508	0.637	0.468	0.403	0.49	0.493
NCI-H1793	0.926	0.729	0.875	0.865		0.339	0.398	0.319	0.316	0.626	0.548	0.81	0.74	0.296	0.259	0.355	0.321
LXF-289	0.99	0.933	1	0.918	0.0714	0.116	0.224	0.273	0.179	0.72	0.766	0.783	0.801	0.624	0.551	0.602	0.606
COR-L 105	1.26	0.988	0.765	0.804	0.266	0.238	0.277	0.232	0.205	0.991	0.71	0.877	0.857	0.362	0.373	0.379	0.438
HCC-827	1	0.966	0.977	0.884	0.334	0.313	0.281	0.377	0.155	0.901	0.922	1.01	0.77	0.499	0.524	0.492	0.511
PC-14	0.936	1.04	0.958	0.944	0.25	0.198	0.251	0.159	0.0375	0.815	0.96	0.886	0.723	0.688	0.496	0.552	0.506
NCI-H1915	1.07	1.04	1.12	1.09		0.285	0.337	0.293	0.297	0.487	0.492	0.629	0.526	0.516	0.521	0.473	0.572
LCLC-103H	1.08	1.08	0.986	1.09	0.312	0.378	0.455	0.511	0.416	0.887	0.743	0.762	0.806	0.462	0.509	0.487	0.472
NCI-H2228	0.606	0.95	0.77	0.878	0.397	0.426	0.606	0.52	0.49	0.654	0.657	0.587	0.838	1.06	0.633	0.884	0.869
EPLC-272H	1.29	1.23	1.08	1.15			0.359	0.367	0.272	0.394	0.561	0.512	0.396	0.306	0.277	0.352	0.316
NCI-H2126	0.755	0.7	0.723	0.701		0.404	0.533	0.559	0.387	0.841	0.62	0.788	0.76	0.378	0.36	0.35	0.36
ABC-1	0.909	0.759	0.774	0.702	0.538	0.584	0.513	0.662	0.56	1.05	1.07	1.07	1.18	0.621	0.693	1.03	0.923
NCI-H650	0.919	0.916	0.828	0.926		0.389	0.404	0.458	0.439	0.45	0.449	0.464	0.448	0.276	0.344	0.302	0.323
